Source: US7569724B2, “Carbamic acid compounds comprising an amide linkage as HDAC inhibitors” (Topotarget UK Limited, priority 2000, dated 2009)
Counter-ions that a name gives are not always drawn. Like-named read-outs stand apart in the source and are kept apart here.

Key:
HDAC (HeLa cell extract) = assay: Primary assay: deacetylase activity, HeLa cell extract as source of HDAC; type: biochemical, human; settings: HeLa cell extract
Description: Briefly, this assay relies on the release of radioactive acetate from a radioactively labelled histone fragment by the action of HDAC enzyme. Test compounds, which inhibit HDAC, reduce the yield of radioactive acetate. Signal (e.g., scintillation counts) measured in the presence and absence of a test compound provide an indication of that compound's ability to inhibit HDAC activity. Decreased activity indicates increased inhibition by the test compound.
The histone fragment was an N-terminal sequence from histone H4, and it was labelled with radioactively labelled acetyl groups using tritiated acetylcoenzyme A (coA) in conjunction with an enzyme which is the histone acetyltransferase domain of the transcriptional coactivator p300. […] The acetylated peptide was then separated from free acetyl coA by size exclusion chromatography on Sephadex G-15 (Sigma G-15-120), using distilled H2O as the mobile phase.
After purification of the radiolabelled histone fragment, it was incubated with a source of HDAC (e.g., an extract of HeLa cells (a rich source of HDAC), recombinantly produced HDAC1 or HDAC2) and any released acetate was extracted into an organic phase and quantitatively determined using scintillation counting. By including a test compound with the source of HDAC, that compound's ability to inhibit the HDAC was determined.
The HeLa cell extract was made from HeLa cells (ATCC Ref. No. CCL-2) by freeze-thawing three times in 60 mM TrisCl pH 8.0, 450 mM NaCl, 30% glycerol. Two cell volumes of extraction buffer were used, and particulate material was centrifuged out (20800 g, 4° C., 10 min). The supernatant extract having deacetylase activity was aliquotted and frozen for storage.
A source of HDAC (e.g., 2 μL of crude HeLa extract, 5 μL of HDAC1 or HDAC2; in elution buffer, as above) was incubated with 3 μL of radioactively labelled peptide along with appropriate dilutions of candidate compounds (1.5 μL) in a total volume of 150 μL of buffer (20 mM Tris pH 7.4, 10% glycerol). The reaction was carried out at 37° C. for one hour, after which the reaction was stopped by adding 20 μL of 1 M HCl/0.4 M sodium acetate. […] Radioactivity was measured using a Tri-Carb 2100TR Liquid Scintillation Analyzer (Packard).
Percent activity (% activity) for each test compound was calculated as: % activity={(S^C−B)/(S^o−B)}×100 wherein S^C denotes signal measured in the presence of enzyme and the compound being tested, S^o denotes signal measured in the presence of enzyme but in the absence of the compound being tested, and B denotes the background signal measured in the absence of both enzyme and compound being tested.

HeLa cells = assay: Secondary assay: cell proliferation WST-1, HeLa; type: cell-based; settings: Homo sapiens, 48 h, read-out: Cell Proliferation Inhibition WST-1 (IC50 unless otherwise specified) HeLa
Procedure: Compounds with HDAC inhibition activity, as determined using the primary assay, were subsequently evaluated using secondary cell-based assays. The following cell lines were used:
HeLa—Human cervical adenocarcinoma cell line (ATCC ref. No. CCL-2).
Cells were plated in 96-well plates at 3-10×10^3 cells/well in 100 μL of culture medium. The following day, different concentrations of candidate compounds were added and the cells incubated at 37° C. for 48 h. Subsequently, 10 μL/well of WST-1 reagent was added and the cells reincubated for 1 hour. After the incubation time, absorbance was measured.
WST-1 is a tetrazolium salt which is cleaved to formazan dye by cellular enzymes. An expansion in the number of viable cells results in an increase in the overall activity of mitochondrial dehydrogenases in the sample. This augmentation in the enzyme activity leads to an increase in the amount of formazan dye formed, which directly correlates to the number of metabolically active cells in the culture. The formazan dye produced is quantified by a scanning multiwell spectrophotometer by measuring the absorbance of the dye solution at 450 nm wavelength (reference wavelength 690 nm).
Percent activity (% activity) in reducing the number of viable cells was calculated for each test compound as: % activity={(S^C−B)/(S^o−B)}×100 wherein S^C denotes signal measured in the presence of the compound being tested, S^o denotes signal measured in the absence of the compound being tested, and B denotes the background signal measured in blank wells containing medium only.
IC50 values were calculated using the software package Prism 3.0 (GraphPad software Inc., San Diego, Calif.), setting top value at 100 and bottom value at 0.

[1] = read-out: HDAC Inhibition (IC50 unless otherwise specified) HeLa
[2] = comparative tables, no unit in cell, read-out: HeLa IC50

| SMILES | HDAC Inhibition HeLa, percent (HDAC (HeLa cell extract); @ 1 μM) | HDAC Inhibition HeLa, percent (HDAC (HeLa cell extract); @ 500 nM) | further results |
| --- | --- | --- | --- |
| CN(C)c1ccc(CC(=O)NCCCC(=O)NO)cc1 [PX082532, 4-(2-(4-Dimethylamino-phenyl)-acetylamino)-N-hydroxy-butyramide] | 21% @ 1 μM | – | – |
| CN(C)c1ccc(C(=O)NCCCC(=O)NO)c2ccccc12 [PX082533] | 2% @ 1 μM | – | percent HDAC inhibition at the stated concentration (HDAC (HeLa cell extract); comparative tables, @ 1 μM): 2% @ 1 μM |
| COc1ccc(NC(=O)CCCC(=O)NO)cc1 [PX082546, Pentanedioic acid hydroxyamide (4-methoxy-phenyl)-amide] | 36% @ 1 μM | – | – |
| CC(C)c1ccc(NC(=O)CCCC(=O)NO)cc1 [PX082548, Pentanedioic acid hydroxyamide (4-isopropyl-phenyl)-amide] | 41% @ 1 μM | – | – |
| COc1ccc(NC(=O)CCCC(=O)NO)cc1OC [PX082549, Pentanedioic acid (3,4-dimethoxy-phenyl)-amide hydroxyamide] | 43% @ 1 μM | – | – |
| CN(C)c1ccc(/C=C/C(=O)NCCCC(=O)NO)cc1 [PX083447, 4-(3-(4-Dimethylamino-phenyl)-acryoylamino)-N-hydroxy-butyramide] | 15% @ 1 μM | – | – |
| O=C(/C=C/C=C/c1ccccc1)NCCC(=O)NO [PX083448] | – | – | IC50 (HDAC (HeLa cell extract); [1]): > 1000 nM; IC50 (HDAC (HeLa cell extract); [2]): > 1000 nM |
| O=C(/C=C/c1ccc([N+](=O)[O-])cc1)NCCCC(=O)NO [PX083803, N-Hydroxy-4-(3-4-(nitro-phenyl)-acryoylamino)-butyramide] | 15% @ 1 μM | – | – |
| O=C(/C=C/c1ccc(C(F)(F)F)cc1)NCCCC(=O)NO [PX083804, N-Hydroxy-4-(3-4-(trifluoromethyl-phenyl)-acryoylamino)-butyramide] | 14% @ 1 μM | – | – |
| O=C(/C=C/c1ccccc1)NCCC(=O)NO [PX083806] | 19% @ 1 μM | – | – |
| O=C(/C=C/c1ccc([N+](=O)[O-])cc1)NCCC(=O)NO [PX083807, N-(2-Hydroxycarbamoyl-ethyl)-3-(4-nitro-phenyl)-acryamide] | 9% @ 1 μM | – | – |
| O=C(/C=C/C=C/c1ccccc1)NCCCC(=O)NO [PX083808] | – | – | IC50 (HDAC (HeLa cell extract); [1]): 20000 nM; IC50 (HDAC (HeLa cell extract); [2]): > 20000 nM |
| COc1ccc(C(=O)NCCCCC(=O)NO)cc1 [PX089048, N-(4-Hydroxycarbamoyl-butyl)-4-methoxy-benzamide] | 34% @ 1 μM | – | – |
| O=C(CCCCNC(=O)c1ccccc1)NO [PX089049, N-(4-Hydroxycarbamoyl-butyl)-benzamide] | – | – | IC50 (HDAC (HeLa cell extract); [1]): > 1000 nM |
| CN(C)c1ccc(C(=O)NCCCCCC(=O)NO)cc1 [PX089274, 4-Dimethylamino-N-(5-hydroxycarbamoyl-pentyl)-benzamide] | – | – | IC50 (HDAC (HeLa cell extract); [1]): 109 nM; IC50 (HDAC (HeLa cell extract); comparative tables, read-out: HeLa IC50): 110 nM; IC50 (HeLa cells): 4400 nM |
| O=C(/C=C/c1ccc(C(F)(F)F)cc1)NCCC(=O)NO [PX089283, N-(2-Hydroxycarbamoyl-ethyl)-3-(4-trifluoromethyl-phenyl)-acryamide] | 21% @ 1 μM | – | – |
| O=C(CC(=O)NCCc1ccccc1)NO [PX099268] | – | – | HDAC Inhibition HeLa, percent (HDAC (HeLa cell extract); @ 10 μM): 18% @ 10 μM |
| CN(C)c1ccc(C=CC(=O)NCCCCCC(=O)NO)cc1 [PX105533] | – | – | IC50 (HDAC (HeLa cell extract); [2]): 18 nM |

| SMILES | HDAC Inhibition HeLa, percent (HDAC (HeLa cell extract); @ 1 μM) | HDAC Inhibition HeLa, percent (HDAC (HeLa cell extract); @ 500 nM) | further results |
| --- | --- | --- | --- |
| CN(CCCC(=O)NO)C(=O)/C=C/C=C/c1ccccc1 [PX105668] | – | – | IC50 (HDAC (HeLa cell extract); [1]): > 10000 nM |
| COc1ccc(/C=C/C=C/C(=O)NCCCC(=O)NO)cc1 [PX105670] | 29% @ 1 μM | – | – |
| O=C(/C=C/C=C/c1ccc(Br)cc1)NCCCC(=O)NO [PX105816, (2E)(4E)-5-(4-Bromophenyl)penta-2,4-dienoic acid (3-hydroxycarbamoylpropyl)amide] | – | 20% @ 500 nM | – |
| O=C(/C=C/C=C/c1ccccc1)NCCCCC(=O)NO [PX105832, (2E)(4E)-5-Phenylpenta-2,4-dienoic acid (4-hydroxycarbamoyl-butyl)amide] | – | – | IC50 (HDAC (HeLa cell extract); [1]): 438 nM; IC50 (HDAC (HeLa cell extract); [2]): 438 nM |
| O=C(/C=C/C=C/c1ccc(Cl)cc1)NCCCC(=O)NO [PX105845, (2E)(4E)-5-(4-Chlorophenyl)-penta-2,4-dienoic acid (3-hydroxycarbamoylpropyl)-amide] | – | 22% @ 500 nM | – |
| O=C(/C=C\C=C\c1ccc(Br)cc1)NCCCC(=O)NO [PX105846, (2Z)(4E)-5-(4-Bromophenyl)penta-2,4-dienoic acid (3-hydroxycarbamoyl-propyl)amide] | – | 46% @ 500 nM | – |
| Nc1nonc1C(=O)NCCCCCC(=O)NO [PX106519, 4-Aminofurazan-3-carboxylic acid (5-hydroxycarbamoylpentyl)amide] | – | 46% @ 500 nM | – |
| CC(/C=C/c1ccccc1)=C\C(=O)NCCCCCC(=O)NO [PX106526, (2E,4E)-3-Methyl-5-phenylpenta-2,4-dienoic acid (5-hydroxycarbamoylpentyl)-amide] | – | – | IC50 (HeLa cells): 2100 nM |
| O=C(/C=C/c1ccccn1)NCCCCCC(=O)NO [PX106528, (E)-N-(5-Hydroxycarbamoylpentyl)-3-pyridin-2-yl-acrylamide oxalate] | – | 67% @ 500 nM | – |
| O=C(CCCCCNC(=O)CCCc1ccccc1)NO [PX116210, N-Hydroxy-6-[(4-phenylbutanoyl)amino]hexanamide] | – | 19% @ 500 nM | – |
| O=C(CCCCCNC(=O)c1ccoc1)NO [PX116219, Furan-3-carboxylic acid (5-hydroxycarbamoyl-pentyl)-amide] | – | 26% @ 500 nM | – |
| O=C(/C=C/C=C/c1ccco1)NCCCCCC(=O)NO [PX116230] | – | – | HDAC Inhibition (IC50 unless otherwise specified) HeLa (HDAC (HeLa cell extract)): insoluble |
| O=C(/C=C/c1cccnc1)NCCCCCC(=O)NO [PX116231, E-N-(5-Hydroxycarbamoyl-pentyl)-3-pyridin-3-yl-acrylamide oxalate] | – | 51% @ 500 nM | – |
| O=C(/C=C/c1ccc(NC(=O)c2ccc3ccccc3c2)cc1)NO [PX116246, Naphthalene-2-carboxylic acid [4-(2-hydroxycarbamoyl-vinyl)-phenyl]-amide] | – | 52% @ 500 nM | – |
| O=C(/C=C/c1ccc(NC(=O)c2ccccc2)cc1)NO [PX117231, N-[4-(2-Hydroxycarbamoyl-vinyl)-phenyl]-benzamide] | – | 72% @ 500 nM | percent HDAC inhibition at the stated concentration (HDAC (HeLa cell extract); comparative tables, @ 1 μM): 72% @ 1 μM |
| O=C(CCc1ccc(NC(=O)c2ccccc2)cc1)NO [PX117232, N-[4-(2-Hydroxycarbamoyl-ethyl)-phenyl]-benzamide] | – | 43% @ 500 nM | percent HDAC inhibition at the stated concentration (HDAC (HeLa cell extract); comparative tables, @ 1 μM): 43% @ 1 μM |
| O=C(CCCCCCC(=O)Nc1ccccc1)NO [SAHA, Suberoylanilide Hydroxamic Acid, reference compound] | – | – | IC50 (HeLa cells): 2200 nM |
